Test results published in patent publication US20220257626A1, “TREATMENT COMPRISING SGLT INHIBITORS” (Novartis AG, priority 2019, published 2022).

Assays:
Format in all cases: in vivo, human
[1] = Placebo-controlled, randomized Phase 2a study in patients with NASH (CLIK066X2204, NCT03205150), interim analysis; conditions: for patients reporting diarrhea (most common adverse event): 12 weeks, placebo 38.9%
Description: Method: Patients with histologically confirmed NASH (F1-F3) or phenotypic NASH (BMI≥27 kg/m^2 in non-Asians or ≥23 kg/m^2 in Asians, ALT≥50 (males) or ≥35 (females) and type 2 diabetes (T2DM)) received daily oral licogliflozin at 150 mg, 30 mg or placebo in a 2:2:1 ratio for 12 weeks (NCT03205150). The primary endpoint is the effect on ALT level after 12 weeks of treatment. Secondary endpoints include improvement in body weight, liver fat content and AST, amongst others. The study size is 110 of which 77 have completed (placebo (n=18); licogliflozin 30 mg (n=25) and licogliflozin 150 mg (n=34)) and are included in the interim analysis.

[2] = Randomized, double-blind, placebo controlled dose finding study in Japanese patients with obesity disease
Description: This study was a randomized, double-blind, placebo controlled, dose finding study to evaluate the effect of licogliflozin (2.5, 10, 25 and 50 mg qd) in 126 Japanese patients with obesity disease. The primary objective was to examine the dose-response relationship of licogliflozin treatment in body weight reduction relative to placebo at 12 weeks. The secondary objectives included assessment of responder rates, change in parameters related to complications, visceral and subcutaneous fat area, and safety through 12 weeks of treatment.

[3] = Phase 2 dose range finding study in obese patients (CLIK066B2201); conditions: 30 mg QD; expected
Description: A dose of 30 mg QD is expected to achieve approximately 70% of maximum observed efficacy (using weight loss as a downstream marker for efficacy; CLIK066B2201). Licogliflozin is currently being tested as 30 mg and 150 mg QD monotherapy in NASH (CLIK066X2204). […] To minimize the risk of GI adverse effects of the SGLT1 inhibition in the gut such as diarrhea, licogliflozin will administered in the evening.

CCc1ccc([C@@H]2O[C@H](CO)[C@@H](O)[C@H](O)[C@H]2O)cc1Cc1ccc2c(c1)OCCO2 [licogliflozin, (2S,3R,4R,5S,6R)-2-(3-((2,3-dihydrobenzo[b][1,4]dioxin-6-yl)methyl)-4-ethylphenyl)-6-(hydroxymethyl)tetrahydro-2H-pyran-3,4,5-triol]
patients reporting diarrhea (most common adverse event) ([1]; 30 mg): 40% | reduction of ALT and liver fat (interim analysis) ([1]; 150 mg QD treatment group): promising reduction | incidence of gastrointestinal events (mainly diarrhea) ([1]; 150 mg QD treatment group, interim analysis): significant incidence | patients reporting diarrhea (most common adverse event) ([1]; 150 mg): 76.5% | safety and tolerability ([2]; 2.5, 10, 25 and 50 mg qd over 12 weeks): safe and well tolerated | ketoacidosis ([2]; 2.5, 10, 25 and 50 mg qd, 12 weeks): no ketoacidosis | patients who achieved reduction of ≥3% in body weight ([2]; 10, 25 and 50 mg qd dose groups, placebo 7.1%, p≤0.002 for all): ≥ 50% | share of maximum observed efficacy (weight loss as downstream marker) [3]: approximately 70%
